{"source": "paper PMC6116705", "about": "“Design, synthesis, in vitro antiproliferative activity and apoptosis-inducing studies of 1-(3′,4′,5′-trimethoxyphenyl)-3-(2′-alkoxycarbonylindolyl)-2-propen-1-one derivatives obtained by a molecular hybridisation approach” (Journal of Enzyme Inhibition and Medicinal Chemistry, 2018)", "key": {"U-937 cells": {"test_system": "U-937 cells", "experiment": "Cell cycle phase distribution and apoptosis, flow cytometry (propidium iodide) and fluorescence microscopy, U-937", "type": "cell-based, human", "method": "(§1) Fluorescent microscopy and flow cytometric analysis of propidium iodide-stained cells were performed as described. Briefly, cells were harvested and fixed in 3% paraformaldehyde and incubated at room temperature for 10 min. The fixative was removed, and the cells were washed with PBS, resuspended in 30–50 μL of PBS containing 20 μg/mL bis-benzimide trihydrochloride (Hoechst 33258) and incubated at room temperature for 15 min. Stained nuclei were visualized using a Zeiss fluorescence microscope.\n(§2) Flow cytometric analysis was carried out using a BD FACSVerse™ cytometer (BD Biosciences, San Jose, CA, USA)."}, "[1]": {"test_system": "human peripheral blood mononuclear cells (PBMC)", "experiment": "Cytotoxicity on normal PBMC (quiescent or PHA-activated)", "type": "cell-based", "conditions": "up to 10 μM, 24 h", "method": "U-937 (human myeloid leukaemia) cells from DSMZ (German Collection of Microorganisms and Cell Cultures, Braunschweig, Germany) and U-937 cells overexpressing human Bcl-2 protein (designated U-937/Bcl-2, donated by Dr Jacqueline Bréard, INSERM U749, Faculté de Pharmacie Paris-Sud., Châtenay-Malabry, France) were cultured in RPMI-1640 medium containing 10% (v/v) heat-inactivated foetal bovine serum, 100 μg/mL streptomycin and 100 U/mL penicillin, incubated at 37 °C in a humidified atmosphere containing 5% CO2 as described. The functioning of U-937/Bcl-2 cells was tested using the cytotoxic agent 1-β-D-arabino-furanosylcytosine as previously described. Human peripheral blood mononuclear cells (PBMC) were isolated from heparin-anticoagulated blood of healthy volunteers by centrifugation with Ficoll-Paque Plus (GE Healthcare Bio-Sciences AB, Uppsala, Sweden). PBMC were also stimulated with phytohemagglutinin (2 μg/mL) for 48 h before the experimental treatment. The trypan blue dye exclusion method was used for counting the living/dead cells by a hematocytometer with 95% viability in all experiments. The cytotoxicity of compounds was evaluated by the colorimetric 3-(4,5-dimethyl-2-thiazolyl-)-2,5-diphenyl-2H-tetrazolium bromide (MTT) assay as previously described. […] After the addition of MTT (0.5 mg/mL), cells were incubated at 37 °C for 4 h. Sodium dodecyl sulphate (10% w/v) in 0.05 M HCl was added to the wells and then incubated at room temperature overnight in the dark. Absorbance was measured at 570 nm. […] Values are mean ± SE from at least three independent experiments, each performed in triplicate. Compounds were dissolved in DMSO and kept in the dark at 25 °C."}, "U-937/Bcl-2 cells": {"test_system": "U-937/Bcl-2 cells", "experiment": "Cell cycle phase distribution and apoptosis, flow cytometry (propidium iodide) and fluorescence microscopy, U-937/Bcl-2", "type": "cell-based, human", "method": "as §1, §2"}, "[2]": {"test_system": "human myeloid leukaemia U-937 cells", "experiment": "MTT cytotoxicity assay, U-937", "type": "cell-based", "conditions": "U-937, MTT, 72 h, read-out: IC50, inhibition of cell growth", "method": "U-937 (human myeloid leukaemia) cells from DSMZ (German Collection of Microorganisms and Cell Cultures, Braunschweig, Germany) and U-937 cells overexpressing human Bcl-2 protein (designated U-937/Bcl-2, donated by Dr Jacqueline Bréard, INSERM U749, Faculté de Pharmacie Paris-Sud., Châtenay-Malabry, France) were cultured in RPMI-1640 medium containing 10% (v/v) heat-inactivated foetal bovine serum, 100 μg/mL streptomycin and 100 U/mL penicillin, incubated at 37 °C in a humidified atmosphere containing 5% CO2 as described. The functioning of U-937/Bcl-2 cells was tested using the cytotoxic agent 1-β-D-arabino-furanosylcytosine as previously described. Human peripheral blood mononuclear cells (PBMC) were isolated from heparin-anticoagulated blood of healthy volunteers by centrifugation with Ficoll-Paque Plus (GE Healthcare Bio-Sciences AB, Uppsala, Sweden). PBMC were also stimulated with phytohemagglutinin (2 μg/mL) for 48 h before the experimental treatment. The trypan blue dye exclusion method was used for counting the living/dead cells by a hematocytometer with 95% viability in all experiments. The cytotoxicity of compounds was evaluated by the colorimetric 3-(4,5-dimethyl-2-thiazolyl-)-2,5-diphenyl-2H-tetrazolium bromide (MTT) assay as previously described. Briefly, 5 × 10^3 exponentially growing cells were seeded in 96-well microculture plates with increasing concentrations of compounds for 72 h. After the addition of MTT (0.5 mg/mL), cells were incubated at 37 °C for 4 h. Sodium dodecyl sulphate (10% w/v) in 0.05 M HCl was added to the wells and then incubated at room temperature overnight in the dark. Absorbance was measured at 570 nm. […] Values are mean ± SE from at least three independent experiments, each performed in triplicate. Compounds were dissolved in DMSO and kept in the dark at 25 °C."}, "[3]": {"test_system": "human promyelocytic leukemia (HL-60) cells", "experiment": "Antiproliferative assay, cell counting (Coulter Counter), HL-60", "type": "cell-based", "conditions": "Homo sapiens; HL-60, 72–96 h; read-out: IC50, inhibition of proliferation", "method": "Human cervix carcinoma (HeLa), human colon carcinoma (HT29), human breast carcinoma (MCF-7) and human lymphoma (HL-60) cells (3–5 × 10^4 cells) and a serial (five-fold) dilution of the test compounds were added to a 96-well microtiter plate. The cells were incubated for 72–96 h (depending on the tumor cell line) at 37 °C in a humidified 5% CO2 atmosphere. At the end of the incubation period, the cells were counted in a Coulter Counter (Coulter Electronics Ltd, Harpenden Herts, UK). […] The IC50 values represent the average (±standard deviation) of at least two to four independent experiments."}}, "note": "Entries after “also recorded” stand apart in the source; their conditions may differ."}
{"smiles": "CCOC(=O)c1[nH]c2cc(OC)ccc2c1/C=C/C(=O)c1cc(OC)c(OC)c(OC)c1", "note": "[Compound 9f, (E)-Ethyl 6-methoxy-3-(3-oxo-3-(3,4,5-trimethoxyphenyl)prop-1-en-1-yl)-1H-indole-2-carboxylate]", "values": [{"measurement": "% G1", "setting": "U-937 cells; U-937, 24 h, 3 µM", "value": "42.7 ± 0.5", "unit": "%"}, {"measurement": "% G2-M", "setting": "U-937 cells; U-937, 24 h, 3 µM", "value": "25.2 ± 0.1", "unit": "%"}, {"measurement": "% S", "setting": "U-937 cells; U-937, 24 h, 3 µM", "value": "24.6 ± 0.8", "unit": "%"}, {"measurement": "% Sub-G1", "setting": "U-937 cells; U-937, 24 h, 3 µM", "value": "5.9 ± 0.3", "unit": "%"}, {"measurement": "% G1", "setting": "U-937 cells; U-937, 24 h, 10 µM", "value": "36.7 ± 1.8", "unit": "%"}, {"measurement": "% G2-M", "setting": "U-937 cells; U-937, 24 h, 10 µM", "value": "23.8 ± 0.4", "unit": "%"}, {"measurement": "% S", "setting": "U-937 cells; U-937, 24 h, 10 µM", "value": "25.5 ± 0.5", "unit": "%"}, {"measurement": "% Sub-G1", "setting": "U-937 cells; U-937, 24 h, 10 µM", "value": "11.9 ± 1.6", "unit": "%"}, {"measurement": "% G1", "setting": "U-937 cells; U-937, 48 h, 3 µM", "value": "51.0 ± 0.5", "unit": "%"}, {"measurement": "% G2-M", "setting": "U-937 cells; U-937, 48 h, 3 µM", "value": "19.2 ± 0.5", "unit": "%"}, {"measurement": "% S", "setting": "U-937 cells; U-937, 48 h, 3 µM", "value": "24.0 ± 0.3", "unit": "%"}, {"measurement": "% Sub-G1", "setting": "U-937 cells; U-937, 48 h, 3 µM", "value": "5.1 ± 0.1", "unit": "%"}, {"measurement": "% G1", "setting": "U-937 cells; U-937, 48 h, 10 µM", "value": "47.1 ± 1.1", "unit": "%"}, {"measurement": "% G2-M", "setting": "U-937 cells; U-937, 48 h, 10 µM", "value": "18.2 ± 0.1", "unit": "%"}, {"measurement": "% S", "setting": "U-937 cells; U-937, 48 h, 10 µM", "value": "23.4 ± 0.3", "unit": "%"}, {"measurement": "% Sub-G1", "setting": "U-937 cells; U-937, 48 h, 10 µM", "value": "10.1 ± 0.6", "unit": "%"}, {"measurement": "% G1", "setting": "U-937 cells; U-937, 72 h, 3 µM", "value": "53.1 ± 2.0", "unit": "%"}, {"measurement": "% G2-M", "setting": "U-937 cells; U-937, 72 h, 3 µM", "value": "16.5 ± 0.6", "unit": "%"}, {"measurement": "% S", "setting": "U-937 cells; U-937, 72 h, 3 µM", "value": "22.3 ± 1.4", "unit": "%"}, {"measurement": "% Sub-G1", "setting": "U-937 cells; U-937, 72 h, 3 µM", "value": "6.4 ± 0.6", "unit": "%"}, {"measurement": "% G1", "setting": "U-937 cells; U-937, 72 h, 10 µM", "value": "43.3 ± 1.7", "unit": "%"}, {"measurement": "% G2-M", "setting": "U-937 cells; U-937, 72 h, 10 µM", "value": "15.0 ± 0.6", "unit": "%"}, {"measurement": "% S", "setting": "U-937 cells; U-937, 72 h, 10 µM", "value": "21.2 ± 1.2", "unit": "%"}, {"measurement": "% Sub-G1", "setting": "U-937 cells; U-937, 72 h, 10 µM", "value": "19.0 ± 3.3", "unit": "%"}, {"measurement": "Toxicity to normal PBMC", "setting": "[1]", "value": "devoid of significant cytotoxic activity; also recorded: no appreciable toxicity"}, {"measurement": "% G1", "setting": "U-937/Bcl-2 cells; U-937/Bcl-2, 24 h, 0.3 µM", "value": "26.0 ± 0.9", "unit": "%"}, {"measurement": "% G2-M", "setting": "U-937/Bcl-2 cells; U-937/Bcl-2, 24 h, 0.3 µM", "value": "41.1 ± 0.4", "unit": "%"}, {"measurement": "% S", "setting": "U-937/Bcl-2 cells; U-937/Bcl-2, 24 h, 0.3 µM", "value": "25.2 ± 0.3", "unit": "%"}, {"measurement": "% Sub-G1", "setting": "U-937/Bcl-2 cells; U-937/Bcl-2, 24 h, 0.3 µM", "value": "6.2 ± 0.9", "unit": "%"}, {"measurement": "% G1", "setting": "U-937/Bcl-2 cells; U-937/Bcl-2, 24 h, 1 µM", "value": "17.6 ± 0.6", "unit": "%"}, {"measurement": "% G2-M", "setting": "U-937/Bcl-2 cells; U-937/Bcl-2, 24 h, 1 µM", "value": "41.0 ± 2.3", "unit": "%"}, {"measurement": "% S", "setting": "U-937/Bcl-2 cells; U-937/Bcl-2, 24 h, 1 µM", "value": "18.1 ± 0.1", "unit": "%"}, {"measurement": "% Sub-G1", "setting": "U-937/Bcl-2 cells; U-937/Bcl-2, 24 h, 1 µM", "value": "20.6 ± 1.6", "unit": "%"}, {"measurement": "% G1", "setting": "U-937/Bcl-2 cells; U-937/Bcl-2, 48 h, 0.3 µM", "value": "27.4 ± 0.8", "unit": "%"}, {"measurement": "% G2-M", "setting": "U-937/Bcl-2 cells; U-937/Bcl-2, 48 h, 0.3 µM", "value": "31.6 ± 0.3", "unit": "%"}, {"measurement": "% S", "setting": "U-937/Bcl-2 cells; U-937/Bcl-2, 48 h, 0.3 µM", "value": "26.3 ± 0.4", "unit": "%"}, {"measurement": "% Sub-G1", "setting": "U-937/Bcl-2 cells; U-937/Bcl-2, 48 h, 0.3 µM", "value": "11.1 ± 0.1", "unit": "%"}, {"measurement": "% G1", "setting": "U-937/Bcl-2 cells; U-937/Bcl-2, 48 h, 1 µM", "value": "16.0 ± 0.0", "unit": "%"}, {"measurement": "% G2-M", "setting": "U-937/Bcl-2 cells; U-937/Bcl-2, 48 h, 1 µM", "value": "28.4 ± 1.8", "unit": "%"}, {"measurement": "% S", "setting": "U-937/Bcl-2 cells; U-937/Bcl-2, 48 h, 1 µM", "value": "16.5 ± 1.0", "unit": "%"}, {"measurement": "% Sub-G1", "setting": "U-937/Bcl-2 cells; U-937/Bcl-2, 48 h, 1 µM", "value": "30.2 ± 3.3", "unit": "%"}, {"measurement": "% G1", "setting": "U-937/Bcl-2 cells; U-937/Bcl-2, 72 h, 0.3 µM", "value": "30.3 ± 2.9", "unit": "%"}, {"measurement": "% G2-M", "setting": "U-937/Bcl-2 cells; U-937/Bcl-2, 72 h, 0.3 µM", "value": "29.4 ± 2.0", "unit": "%"}, {"measurement": "% S", "setting": "U-937/Bcl-2 cells; U-937/Bcl-2, 72 h, 0.3 µM", "value": "23.8 ± 0.7", "unit": "%"}, {"measurement": "% Sub-G1", "setting": "U-937/Bcl-2 cells; U-937/Bcl-2, 72 h, 0.3 µM", "value": "11.8 ± 0.5", "unit": "%"}, {"measurement": "% G1", "setting": "U-937/Bcl-2 cells; U-937/Bcl-2, 72 h, 1 µM", "value": "14.0 ± 0.6", "unit": "%"}, {"measurement": "% G2-M", "setting": "U-937/Bcl-2 cells; U-937/Bcl-2, 72 h, 1 µM", "value": "22.7 ± 0.2", "unit": "%"}, {"measurement": "% S", "setting": "U-937/Bcl-2 cells; U-937/Bcl-2, 72 h, 1 µM", "value": "17.1 ± 1.4", "unit": "%"}, {"measurement": "% Sub-G1", "setting": "U-937/Bcl-2 cells; U-937/Bcl-2, 72 h, 1 µM", "value": "37.7 ± 1.5", "unit": "%"}, {"measurement": "IC50", "setting": "[2]", "value": "6.5 ± 1.7", "unit": "µM"}, {"measurement": "IC50", "setting": "[3]", "value": "5.2 ± 2.2", "unit": "µM"}]}
